Experimental data from patent US20240108006A1, “PESTICIDALLY ACTIVE HETEROAROMATIC COMPOUNDS” (SYNGENTA CROP PROTECTION AG, priority 2021, published 2024).

Assays:
Type in all cases: in vivo
Myzus persicae [1] = test: Example B7: Myzus persicae (green peach aphid), intrinsic activity, sucrose solution 24-well; settings: 120 h, application rate of 12.5 ppm, 5 days after infestation, read-out: control (mortality)
In short: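 Compounds from 10,000 ppm DMSO stocks were mixed into sucrose solution in wells at a rate of 12.5 ppm. Aphid-infested pea seedlings were placed on a Parafilm membrane over the solution, so aphids fed through it. Mortality was scored 5 days after infestation.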

Spodoptera littoralis = test: Example B9: Spodoptera littoralis (Egyptian cotton leaf worm), cotton leaf discs, L1 larvae; settings: foliar, 72 h, application rate of 200 ppm, 3 days after infestation, read-out: control in at least one of the three categories (mortality, anti-feedant effect, or growth inhibition)
In short: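 Five L1 larvae placed on sprayed, dried cotton leaf discs; spray solutions aqueous, from 10,000 ppm DMSO stocks. Control given when mortality, anti-feedant effect or growth inhibition exceeds untreated samples at 3 days.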

Diabrotica balteata = test: Example B2: Diabrotica balteata (corn root worm), maize sprouts, L2 larvae; settings: 96 h, application rate of 200 ppm, 4 days after infestation, read-out: control in at least one of the two categories (mortality or growth inhibition)
Procedure: Example B2: Diabrotica balteata (Corn Root Worm)
Maize sprouts placed onto an agar layer in 24-well microtiter plates were treated with aqueous test solutions prepared from 10,000 ppm DMSO stock solutions by spraying. After drying, the plates were infested with L2 larvae (6 to 10 per well). The samples were assessed for mortality and growth inhibition in comparison to untreated samples 4 days after infestation.
The following compounds gave an effect of at least 80% control in at least one of the two categories (mortality or growth inhibition) at an application rate of 200 ppm: […]

Plutella xylostella = test: Example B8: Plutella xylostella (diamond back moth), artificial diet 24-well, eggs; settings: 192 h, application rate of 200 ppm, 8 days after infestation, read-out: effect in at least one of the two categories (mortality or growth inhibition)
In short: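 Plutella eggs placed onto dried, compound-treated artificial diet, the aqueous test solutions diluted from 10,000 ppm DMSO stocks. Eight days post-infestation, larvae rated for mortality and growth inhibition relative to untreated controls.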

Chilo suppressalis = test: Example B1: Chilo suppressalis (striped rice stemborer), artificial diet, L2 larvae; settings: 144 h, application rate of 200 ppm, 6 days after infestation, read-out: control in at least one of the three categories (mortality, anti-feedant effect, or growth inhibition)
In short: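 L2 larvae (6-8 per well) were placed on dried artificial diet that had been dosed with aqueous dilutions of 10,000 ppm DMSO stock solutions. After 6 days, control was credited if mortality, antifeedant effect or growth inhibition was higher than in untreated samples.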

Myzus persicae [2] = test: Example B5: Myzus persicae (green peach aphid), feeding/contact activity; settings: 144 h, application rate of 200 ppm, 6 days after infestation
Procedure: Example B5: Myzus persicae (Green Peach Aphid):Feeding/Contact Activity
Sunflower leaf discs were placed onto agar in a 24-well microtiter plate and sprayed with aqueous test solutions prepared from 10,000 ppm DMSO stock solutions. After drying, the leaf discs were infested with an aphid population of mixed ages. The samples were assessed for mortality 6 days after infestation.

C[C@H](NC(=O)Nc1cc(OC(F)F)c(Cl)cc1Cl)c1ncnn1-c1ncccn1 [Example P272, 1-[2,4-dichloro-5-(difluoromethoxy)phenyl]-3-[(1S)-1-(2-pyrimidin-2-yl-1,2,4-triazol-3-yl)ethyl]urea]
≥ 80%: mortality at 12.5 ppm (Myzus persicae [1]) | percent control (mortality, anti-feedant effect or growth inhibition) at 200 ppm (Spodoptera littoralis) | percent control (mortality or growth inhibition) at 200 ppm (Diabrotica balteata) | percent effect (mortality or growth inhibition) at 200 ppm (Plutella xylostella) | percent control (mortality, anti-feedant effect or growth inhibition) at 200 ppm (Chilo suppressalis)

C[C@H](NC(=O)Nc1ccnn1-c1ccc(Cl)cn1)c1ncnn1-c1ncccn1 [Example P17, 1-[2-(5-chloro-2-pyridyl)pyrazol-3-yl]-3-[(1S)-1-(2-pyrimidin-2-yl-1,2,4-triazol-3-yl)ethyl]urea]
≥ 80%: mortality at 200 ppm (Myzus persicae [2])

C[C@H](NC(=O)Nc1ccc(Cl)c(OC(F)(F)C(F)F)c1)c1ncnn1-c1ncccn1 [Example P35, 1-[4-chloro-3-(1,1,2,2-tetrafluoroethoxy)phenyl]-3-[(1S)-1-(2-pyrimidin-2-yl-1,2,4-triazol-3-yl)ethyl]urea]
≥ 80%: mortality at 12.5 ppm (Myzus persicae [1]) | percent control (mortality, anti-feedant effect or growth inhibition) at 200 ppm (Spodoptera littoralis) | percent control (mortality or growth inhibition) at 200 ppm (Diabrotica balteata) | percent effect (mortality or growth inhibition) at 200 ppm (Plutella xylostella) | percent control (mortality, anti-feedant effect or growth inhibition) at 200 ppm (Chilo suppressalis)

C[C@H](NC(=O)Nc1cnc(C(F)(F)F)cc1Cl)c1ncnn1-c1ccc(C#N)cn1 [Example P257, 1-[4-chloro-6-(trifluoromethyl)-3-pyridyl]-3-[(1S)-1-[2-(5-cyano-2-pyridyl)-1,2,4-triazol-3-yl]ethyl]urea]
≥ 80%: mortality at 12.5 ppm (Myzus persicae [1]) | percent control (mortality, anti-feedant effect or growth inhibition) at 200 ppm (Spodoptera littoralis) | percent control (mortality or growth inhibition) at 200 ppm (Diabrotica balteata) | percent effect (mortality or growth inhibition) at 200 ppm (Plutella xylostella) | percent control (mortality, anti-feedant effect or growth inhibition) at 200 ppm (Chilo suppressalis)

C[C@H](NC(=O)Nc1cc(C(F)(F)F)cc(C(F)(F)F)n1)c1ncnn1-c1ncccn1 [Example P91, 1-[4,6-bis(trifluoromethyl)-2-pyridyl]-3-[(1S)-1-(2-pyrimidin-2-yl-1,2,4-triazol-3-yl)ethyl]urea]
≥ 80%: mortality at 200 ppm (Myzus persicae [2])

CC(NC(=O)Nc1cc(OC(F)(F)C(F)F)c(Cl)cc1Cl)c1ncnn1-c1ncccn1 (stereo not drawn) [Example P177, 1-[2,4-dichloro-5-(1,1,2,2-tetrafluoroethoxy)phenyl]-3-[1-(2-pyrimidin-2-yl-1,2,4-triazol-3-yl)ethyl]urea]
≥ 80%: mortality at 12.5 ppm (Myzus persicae [1]) | percent control (mortality, anti-feedant effect or growth inhibition) at 200 ppm (Spodoptera littoralis) | percent control (mortality or growth inhibition) at 200 ppm (Diabrotica balteata) | percent effect (mortality or growth inhibition) at 200 ppm (Plutella xylostella) | percent control (mortality, anti-feedant effect or growth inhibition) at 200 ppm (Chilo suppressalis)

C[C@H](NC(=O)Nc1cc(C(C)(C)C#N)c(Cl)cc1F)c1ncnn1-c1ncccn1 [Example P202, 1-[4-chloro-5-(1-cyano-1-methyl-ethyl)-2-fluoro-phenyl]-3-[(1S)-1-(2-pyrimidin-2-yl-1,2,4-triazol-3-yl)ethyl]urea]
≥ 80%: mortality at 12.5 ppm (Myzus persicae [1]) | percent control (mortality, anti-feedant effect or growth inhibition) at 200 ppm (Spodoptera littoralis) | percent effect (mortality or growth inhibition) at 200 ppm (Plutella xylostella) | percent control (mortality, anti-feedant effect or growth inhibition) at 200 ppm (Chilo suppressalis) | mortality at 200 ppm (Myzus persicae [2])

C[C@H](NC(=O)Nc1cc(C(F)(F)F)c(Cl)cc1Br)c1ncnn1-c1ncccn1 [Example P48, 1-[2-bromo-4-chloro-5-(trifluoromethyl)phenyl]-3-[(1S)-1-(2-pyrimidin-2-yl-1,2,4-triazol-3-yl)ethyl]urea]
≥ 80%: mortality at 12.5 ppm (Myzus persicae [1]) | percent control (mortality, anti-feedant effect or growth inhibition) at 200 ppm (Spodoptera littoralis) | percent control (mortality or growth inhibition) at 200 ppm (Diabrotica balteata) | percent effect (mortality or growth inhibition) at 200 ppm (Plutella xylostella) | percent control (mortality, anti-feedant effect or growth inhibition) at 200 ppm (Chilo suppressalis)

C[C@H](NC(=O)Nc1cc2c(cc1Cl)C(=O)N(C)C2=O)c1ncnn1-c1ncccn1 [Example P207, 1-(6-chloro-2-methyl-1,3-dioxo-isoindolin-5-yl)-3-[(1S)-1-(2-pyrimidin-2-yl-1,2,4-triazol-3-yl)ethyl]urea]
≥ 80%: mortality at 200 ppm (Myzus persicae [2])

C[C@H](NC(=O)Nc1cc(C(F)(F)F)n(C)n1)c1ncnn1-c1ncccn1 [Example P108, 1-[1-methyl-5-(trifluoromethyl)pyrazol-3-yl]-3-[(1S)-1-(2-pyrimidin-2-yl-1,2,4-triazol-3-yl)ethyl]urea]
≥ 80%: mortality at 200 ppm (Myzus persicae [2])

COc1cc(Cl)c(NC(=O)N[C@@H](C)c2ncnn2-c2ncccn2)cc1Cl [Example P204, 1-(2,5-dichloro-4-methoxy-phenyl)-3-[(1S)-1-(2-pyrimidin-2-yl-1,2,4-triazol-3-yl)ethyl]urea]
≥ 80%: mortality at 200 ppm (Myzus persicae [2])

C[C@H](NC(=O)Nc1cc(C(F)(F)F)ncn1)c1ncnn1-c1ncccn1 [Example P32, 1-[(1S)-1-(2-pyrimidin-2-yl-1,2,4-triazol-3-yl)ethyl]-3-[6-(trifluoromethyl)pyrimidin-4-yl]urea]
≥ 80%: mortality at 200 ppm (Myzus persicae [2])

CC(C)Oc1cc(NC(=O)N[C@@H](C)c2ncnn2-c2ncccn2)c(Cl)cc1Cl [Example P236, 1-(2,4-dichloro-5-isopropoxy-phenyl)-3-[(1S)-1-(2-pyrimidin-2-yl-1,2,4-triazol-3-yl)ethyl]urea]
≥ 80%: mortality at 12.5 ppm (Myzus persicae [1]) | percent control (mortality, anti-feedant effect or growth inhibition) at 200 ppm (Spodoptera littoralis) | percent control (mortality or growth inhibition) at 200 ppm (Diabrotica balteata) | percent effect (mortality or growth inhibition) at 200 ppm (Plutella xylostella) | percent control (mortality, anti-feedant effect or growth inhibition) at 200 ppm (Chilo suppressalis)

Cc1nc([C@H](C)NC(=O)Nc2cc(OC(F)(F)C(F)F)c(Cl)cc2Cl)n(-c2ncccn2)n1 [Example P276, 1-[2,4-dichloro-5-(1,1,2,2-tetrafluoroethoxy)phenyl]-3-[(1S)-1-(5-methyl-2-pyrimidin-2-yl-1,2,4-triazol-3-yl)ethyl]urea]
≥ 80%: mortality at 12.5 ppm (Myzus persicae [1]) | percent control (mortality, anti-feedant effect or growth inhibition) at 200 ppm (Spodoptera littoralis) | percent control (mortality or growth inhibition) at 200 ppm (Diabrotica balteata) | percent effect (mortality or growth inhibition) at 200 ppm (Plutella xylostella) | percent control (mortality, anti-feedant effect or growth inhibition) at 200 ppm (Chilo suppressalis)

COc1ccc(COc2cc(NC(=O)N[C@@H](C)c3ncnn3-c3ncccn3)c(Cl)cc2Cl)cc1F [Example P168, 1-[2,4-dichloro-5-[(3-fluoro-4-methoxy-phenyl)methoxy]phenyl]-3-[(1S)-1-(2-pyrimidin-2-yl-1,2,4-triazol-3-yl)ethyl]urea]
≥ 80%: mortality at 200 ppm (Myzus persicae [2])

Cc1cc(F)c(OS(C)(=O)=O)cc1NC(=O)N[C@@H](C)c1ncnn1-c1ncccn1 [Example P181, [2-fluoro-4-methyl-5-[[(1S)-1-(2-pyrimidin-2-yl-1,2,4-triazol-3-yl)ethyl]carbamoylamino]phenyl] methanesulfonate]
≥ 80%: mortality at 12.5 ppm (Myzus persicae [1]) | percent control (mortality, anti-feedant effect or growth inhibition) at 200 ppm (Chilo suppressalis) | mortality at 200 ppm (Myzus persicae [2])

C[C@H](NC(=O)Nc1cc(OC(F)(F)F)c(Cl)cc1F)c1ncnn1-c1ncccn1 [Example P214, 1-[4-chloro-2-fluoro-5-(trifluoromethoxy)phenyl]-3-[(1S)-1-(2-pyrimidin-2-yl-1,2,4-triazol-3-yl)ethyl]urea]
≥ 80%: mortality at 12.5 ppm (Myzus persicae [1]) | percent control (mortality, anti-feedant effect or growth inhibition) at 200 ppm (Spodoptera littoralis) | percent control (mortality or growth inhibition) at 200 ppm (Diabrotica balteata) | percent effect (mortality or growth inhibition) at 200 ppm (Plutella xylostella) | percent control (mortality, anti-feedant effect or growth inhibition) at 200 ppm (Chilo suppressalis)

C[C@H](NC(=O)Nc1cc(OC(F)(F)C(F)C(F)(F)F)c(Cl)cc1F)c1ncnn1-c1ncccn1 (stereo partly drawn) [Example P215, 1-[4-chloro-2-fluoro-5-(1,1,2,3,3,3-hexafluoropropoxy)phenyl]-3-[(1S)-1-(2-pyrimidin-2-yl-1,2,4-triazol-3-yl)ethyl]urea]
≥ 80%: mortality at 12.5 ppm (Myzus persicae [1]) | percent control (mortality, anti-feedant effect or growth inhibition) at 200 ppm (Spodoptera littoralis) | percent control (mortality or growth inhibition) at 200 ppm (Diabrotica balteata) | percent effect (mortality or growth inhibition) at 200 ppm (Plutella xylostella) | percent control (mortality, anti-feedant effect or growth inhibition) at 200 ppm (Chilo suppressalis)

C[C@H](NC(=O)Nc1cc(OCc2cccc(Br)n2)c(Cl)cc1Cl)c1ncnn1-c1ncccn1 [Example P145, 1-[5-[(6-bromo-2-pyridyl)methoxy]-2,4-dichloro-phenyl]-3-[(1S)-1-(2-pyrimidin-2-yl-1,2,4-triazol-3-yl)ethyl]urea]
≥ 80%: mortality at 200 ppm (Myzus persicae [2])

C[C@H](NC(=O)Nc1cc(C(F)(F)F)c(Cl)cc1Cl)c1ncnn1-c1ncccn1 [Example P178, 1-[2,4-dichloro-5-(trifluoromethyl)phenyl]-3-[(1S)-1-(2-pyrimidin-2-yl-1,2,4-triazol-3-yl)ethyl]urea]
≥ 80%: mortality at 12.5 ppm (Myzus persicae [1]) | percent control (mortality, anti-feedant effect or growth inhibition) at 200 ppm (Spodoptera littoralis) | percent control (mortality or growth inhibition) at 200 ppm (Diabrotica balteata) | percent effect (mortality or growth inhibition) at 200 ppm (Plutella xylostella) | percent control (mortality, anti-feedant effect or growth inhibition) at 200 ppm (Chilo suppressalis)
